Source: patent publication US20240335404A1, “SUBSTITUTED ESTERS CONTAINING POLYOLS AND SACCHARIDES FOR TREATING HEPATOTOXICITY AND FATTY LIVER DISEASES” (SINEW PHARMA INC., priority 2015, published 2024)

Legend:
[1] = Pro-drug hydrolysis in fresh human whole-blood (in vitro); assay type: in vitro ADME; conditions: 37° C., up to 24 hrs (FIG. 1)
Protocol: Fresh human whole-blood were used for drug hydrolysis studies. Drug (10 mg, compound F) was dissolved in 1 mL solution (20% methanol). Drug hydrolysis (n=3) was performed in 20 mL of fresh whole-blood aliquots containing 1.0 mg of drug in a 50-mL flask thermostat at 37° C. in a shaking water bath. At time 0, the drug was added, and after various times of incubation, the blood samples were collected at […], 0.75, 1, 2, 4, 6, 12 and 24 hrs. Blood sample were used 1 mL acetonitrile to quench the enzymatic hydrolysis of the drug as samples were obtained. […] The ESI interface was used in the negative-ion mode.
The pro-drug was monitored at a transition of m/z 688.9∂→180.9, Sucralose was monitored at a transition of m/z 395→359; mannitol was monitored at a transition of m/z 452.3→273.3; C6-mannitol was monitored at a transition of m/z 309→101.1. All the compounds were identified by high-resolution mass spectrophotometry and ^13C NMR. The structure of C6-mannitol (formula (2)) is as follows: […]
The hydrolysis of pro-drug in blood was expressed by plotting the percentage of Pro-drug remaining and the percentage of sucralose, mannitol and C6-mannitol increasing versus time after incubation of the pro-drug in blood (FIG. 1).

CYP2E1 = CYP2E1 (Homo sapiens, UniProt P05181); experiment: CYP2E1 inhibitory activity assay in human liver microsomes (CZX to 6-OH-CZX)
Sequence of CYP2E1 (P05181 whole entry): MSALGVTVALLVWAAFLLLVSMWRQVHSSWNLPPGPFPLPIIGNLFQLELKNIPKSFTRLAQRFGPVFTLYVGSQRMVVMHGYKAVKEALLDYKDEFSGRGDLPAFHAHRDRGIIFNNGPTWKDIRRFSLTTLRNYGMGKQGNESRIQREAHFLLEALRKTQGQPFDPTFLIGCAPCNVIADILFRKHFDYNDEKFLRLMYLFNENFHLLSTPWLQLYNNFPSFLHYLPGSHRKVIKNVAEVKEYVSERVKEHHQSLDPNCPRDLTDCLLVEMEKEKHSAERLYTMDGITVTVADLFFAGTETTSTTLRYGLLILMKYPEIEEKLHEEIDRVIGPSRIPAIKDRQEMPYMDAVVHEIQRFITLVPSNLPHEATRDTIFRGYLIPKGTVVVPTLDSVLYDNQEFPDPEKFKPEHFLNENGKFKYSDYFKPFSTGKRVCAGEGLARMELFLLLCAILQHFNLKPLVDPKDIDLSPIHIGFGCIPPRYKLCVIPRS
Protocol: After addition of the test sample, the amount of CYP450 isozyme metabolite standard 6-OH-CZX (6-Hydroxy-Chlorzoxazone) is specific used for calculation of the CYP450 isozyme (CYP2E1) inhibition ratio of the test sample by using the amount of 6-OH-CZX of the control group as the baseline.
All samples were tested in triplicate. To determine the percentage inhibition, each test compound was dissolved in 1, 2, 4 μg/mL to three different concentrations. The CYP2E1 activity levels in the presence of the test compounds were compared with the control incubations. The 500-μL reaction mixture, containing 0.5 mg of microsomal protein, was incubated with 320 μM CZX in the presence of 5 mM MgCl2 and 1 mM NADPH in 50 mM phosphate buffer with pH 7.4 at 37° C. for 30 min. The reaction was terminated by ice-cold acetonitrile, and then 4-hydroxyl tolbutamide was added as an internal standard. The organic phase was evaporated to dryness and reconstituted into the mobile phase (methanol:water=1:1) prior to liquid chromatography-tandem mass spectrometry (LC-MS/MS) analysis. An API 3000 triple-quadrupole mass spectrometer equipped with an ion-spray (ESI) source was used to determine 6-OH-CZX in the human liver microsomes. The ESI interface was used in the positive-ion mode. The 6-OH-CZX was monitored at a transition of m/z 284.5→185.9.
The CYP450 isozyme activity levels in the presence of the test compounds were compared with the control incubations.

P450 2E1 inhibitor activity (CYP2E1): effective as P450 2E1 inhibitors
CYP 2E1 inhibition ratio (%) (CYP2E1; 1 μg/mL): 17.7 ± 0.7%
CYP 2E1 inhibition ratio (%) (CYP2E1; 2 μg/mL): 33.3 ± 4.1%
CYP 2E1 inhibition ratio (%) (CYP2E1; 4 μg/mL): 45.7 ± 2.5%
Structure (SMILES): O=C(CCCCC(=O)OC[C@@H](O)[C@@H](O)[C@H](O)[C@H](O)CO)OCC1O[C@H](O[C@]2(CCl)OC(CCl)C(O)C2O)C(O)C(O)[C@H]1Cl (stereo in doubt) [Compound F, ((2R,3R,4R,5R,6R)-6-(((2R,5R)-2,5-bis(chloromethyl)-3,4-dihydroxytetrahydrofuran-2-yl)oxy)-3-chloro-4,5-dihydroxytetrahydro-2H-pyran-2-yl)methyl ((2R,3R,4R)-2,3,4,5,6-pentahydroxyhexyl) adipate]
percentage of pro-drug remaining and metabolites formed in blood [1]: turns into its metabolites including sucralose, mannitol and C6-mannitol
